Measurements as given in PubChem BioAssay (NCI).
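Cells were grown in 96-well plates and exposed to each compound for 48 hours at five concentrations; endpoints were interpolated linearly between bracketing concentrations, or set to the highest concentration if not reached. TGI: concentration producing complete growth inhibition.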

How the values were obtained:
Test in all cases: NCI anticancer screen, dose series, 48 h
[1] = test system: ACHN renal
[2] = test system: BT-549 breast
[3] = test system: DU-145 prostate
[4] = test system: HCT-116 colon
[5] = test system: HOP-62 NSCLC
[6] = test system: HT29 colon
[7] = test system: LOX IMVI melanoma
[8] = test system: M14 melanoma
[9] = test system: MALME-3M melanoma
[10] = test system: SF-268 CNS

| Structure (SMILES) | TGI [1] [µM] | TGI [2] [µM] | TGI [3] [µM] | TGI [4] [µM] | TGI [5] [µM] | TGI [6] [µM] | TGI [7] [µM] | TGI [8] [µM] | TGI [9] [µM] | TGI [10] [µM] |
| --- | --- | --- | --- | --- | --- | --- | --- | --- | --- | --- |
| CCOc1cc(C2CC(c3ccc(NS(=O)(=O)c4cc([N+](=O)[O-])ccc4C)cc3)=NN2c2ccc([N+](=O)[O-])cc2[N+](=O)[O-])ccc1O (stereo not given) | 21.7 | 38.4 | 45.1 | 26.1 | 27.3 | > 100 | 44.1 | 31.6 | 23.2 | 43.9 |
| CCOC(=O)c1nc2ccc(C(F)(F)F)cc2nc1Oc1cc(OC)cc(OC)c1 | > 100 | > 100 | > 100 | > 100 | > 100 | > 100 | > 100 | > 100 | > 100 | > 100 |
| COc1cc(C2c3cc4c(cc3OC(NNC(N)=O)C2C)OCO4)cc(OC)c1O (stereo not given) | > 100 | > 100 | 33.7 | > 56.5 | > 100 | > 56.8 | > 100 | > 42.6 | > 100 | > 100 |
| COc1ccccc1NC(=O)CC(=O)N1N=C(C)C(N=Nc2ccc(C(=O)O)cc2)C1=O (stereo not given) | > 100 | > 100 | > 100 | > 100 | > 100 | > 100 | > 100 | > 100 | > 100 | > 100 |
| c1ccc2c(c1)CCc1c-2n(CCN2CCOCC2)c2ccccc12 | > 100 | > 100 | > 100 | > 100 | > 100 | 25.9 | > 100 | > 100 | 32.2 | > 100 |
| COc1ccc2nc3cc([N+](=O)[O-])ccc3c(Nc3ccc(S(=O)(=O)NC(C)=O)cc3)c2c1 | > 100 | > 100 | > 100 | > 100 | > 100 | > 100 | > 100 | > 100 | > 100 | > 100 |
| CSc1n[nH]c(N)c1C(=O)Nc1ccc(C)cc1 | > 100 | > 100 | > 100 | > 100 | > 100 | > 100 | > 100 | > 100 | > 100 | > 100 |
| O=c1oc2ccccc2cc1-c1cn2cc(Cl)ccc2n1 | 3.31 | 21.9 | > 36.8 | 14.7 | 6.22 | > 59.8 | 18.7 | 15.2 | 4.77 | 16.7 |
| N#Cc1ccccc1-c1nc2c3c(c(N)ccc3n1)C(=O)c1ccccc1-2 | > 100 | > 100 | > 100 | > 100 | > 100 | > 100 | > 100 | > 100 | > 100 | > 100 |
| C(CCCCc1nnc(N2CCCCC2)o1)CCCc1nnc(N2CCCCC2)o1 | > 100 | > 100 | > 100 | > 100 | > 100 | > 100 | > 100 | > 100 | > 100 | > 100 |
| COc1cc(/C=C2/C[C@H]3[C@@H]4CC=C5C[C@@H](OC(C)=O)CC[C@]5(C)[C@H]4CC[C@]3(C)NC2=O)cc(OC)c1OC | 44.6 | 55 | 55.3 | > 100 | 73.1 | > 100 | > 100 | > 100 | 60.3 | 76 |
| COc1c(O)cc(O)c2c(=O)cc(-c3ccccc3)oc12 | > 100 | > 100 | 79.5 | 78.4 | 49.8 | > 100 | 68.8 | > 100 | > 100 | > 100 |
| O=C(O)c1ccn(-c2cccc(-n3ccc(C(=O)O)n3)n2)n1 | > 100 | > 100 | > 100 | > 100 | > 100 | > 100 | > 100 | > 100 | > 100 | > 100 |
| CCCCCCCCCCCCCCCCCCNc1ccn(C2OC(COP(=O)(O)OCC3OC(n4cc(F)c(NCCCCCCCCCCCCCCCCCC)nc4=O)CC3O)C(O)C2O)c(=O)n1 (stereo not given) | > 100 | > 100 | > 100 | > 100 | > 100 | > 100 | > 100 | > 100 | > 100 | > 100 |
| O=C(Nc1nc2ccccc2s1)c1cc([N+](=O)[O-])ccc1Cl | > 100 | > 30.9 | 86.3 | > 100 | > 100 | 65.9 | 13.7 | > 47.8 | > 100 | 62 |
| CSC1=N/C(=C\c2ccco2)C(=O)N1CN1CCOCC1 | > 89.4 | 41.2 | > 100 | > 66.9 | > 100 | > 100 | > 100 | > 100 | > 80.7 | > 78.3 |
| CCOP(=O)(OCC)C1CC(n2cc(C)c(=O)[nH]c2=O)OC1CO (stereo not given) | > 100 | > 100 | > 100 | > 100 | > 100 | > 100 | > 100 | > 100 | > 100 | > 100 |
